Measured values reported in patent US11382920B2, “Therapeutic effects of Guanabenz treatment in vanishing white matter” (Stichting VUmc, priority 2017, dated 2022).

Assays:
[1] = system: ATF4 expression; assay: Stress-sensitive ATF4 luciferase reporter transfection assay (pNL1.1-mATF4) in U373 cells; assay type: cell-based, human; conditions: 15 μM compound added with 3 nM thapsigargin for 16 hours
Description: FIG. 9. […] ATF4 expression was assessed with a luciferase reporter construct under regulation of the murine Atf4 promoter and 5′ non-coding region. Cells were transfected as described. The ISR was induced by administration of 3 nM thapsigargin (TG) to the cell culture medium. […] Guanfacin (Gf), an a2 adrenergic receptor agonist without reported GADD34 modulating activity, was included in parallel as negative control. […] Statistical analyses were performed for individual compounds with a paired t-test (*, p<0.05, **, p<0.01).
The a2 adrenergic receptor agonist Guanabenz (Gb) has been reported to also target GADD34 and thereby impact on a negative feedback loop of the ISR [16]. GADD34 promotes dephosphorylation of eIF2P. Gb is thought to inhibit GADD34, it is thereby though to increase and prolong eIF2a phosphorylation and consequently increases production of ATF4 and its regulated transcriptome. We tested the effect of Gb on ATF4 production in U373 cell lines using a stress-sensitive transfection assay. Transfections were performed with the pNL1.1-mATF4 reporter construct, in which expression of the reporter gene is controlled by ISR-responsive sequences. Expression from the reporter construct was measured 2 days after transfection with a commercially available chemiluminescent assay and can be directly interpreted as a measure for ATF4 expression.
ATF4 expression was investigated in the absence or presence of ISR activation. […] Gb was added together with thapsigargin to the culture medium to test the effect of Gb on ATF4 expression. […] The eIF2B-enhancing compound ISRIB was included as positive control for ATF4-regulation.

[2] = system: 2b5^ho mice; assay: In situ hybridization for Plp-expressing cells after Guanabenz treatment; assay type: in vivo, mouse; conditions: Guanabenz i.p. weekly 2-10 months, forebrain (corpus callosum) and cerebellum, vs saline
Description: (§3) Tissue sections of 11 WT and 10 2b5^ho (carrying a homozygous Arg191His mutation in the Eif2b5 gene [7]) animals of 2, 5 or 7 months of age were collected after intracardiac perfusion with 4% paraformaldehyde (PFA). The brains were postfixed in 4% PFA for 1-2 days, after which half of the brain was embedded in paraffin and the other half was incubated overnight in 30% sucrose and snapfrozen in optimum cutting temperature compound (Sakura). […] To test the effect of Guanabenz, 11 female 2b5^ho littermates were injected with saline (n=5) or Guanabenz (10 mg/kg; n=6) i.p. every week from 2 months until 10 months of age. Animals were randomly assigned to the Guanabenz or saline group, and single animals were taken as experimental units. At 11 months of age all mice were sacrificed and the brains were used for analysis. The brains of 3 saline- and 4 Guanabenz-injected animals were perfused as described and used for immunostaining and in situ hybridization. […]
In situ hybridization targeting proteolipid protein (Plp) mRNA was performed on PFA-fixed snapfrozen tissue as previously described [7, 25]. […] The number of Plp-positive cells was analyzed in the rostrum and splenium of the corpus callosum, and in the white matter of the cerebellum. For each area 3 different pictures were taken with a 100× objective lens and cells were counted in a 100×200 μm square.

[3] = system: 2b5^ho mice; assay: Nestin cell count in corpus callosum after Guanabenz treatment of VWM mice; assay type: in vivo, mouse; conditions: Guanabenz i.p. weekly from 2 to 10 months of age, analysed at 11 months, vs saline, p=0.289, not significant
Description: as §3
(§4) Mouse tissue was processed for immunostaining as previously described [7]. […] Stainings were analyzed with a LeicaDM6000B microscope (Leica Microsystems). […]
Astrocytes double-positive for nestin and GFAP were counted in the splenium and rostrum of the corpus callosum, on 100× magnification pictures. Total cell number was determined by counting the DAPI-positive nuclei. For each animal, at least 3 slices were stained and counted. […]

[4] = in vivo; cited from earlier work
[5] = system: 2b5^ho mice; assay: Western blot for myelin proteins MBP and MOG after Guanabenz treatment; assay type: in vivo, mouse; conditions: Guanabenz vs saline, n=2
Description: To test the effect of Guanabenz, 11 female 2b5^ho littermates were injected with saline (n=5) or Guanabenz (10 mg/kg; n=6) i.p. every week from 2 months until 10 months of age. Animals were randomly assigned to the Guanabenz or saline group, and single animals were taken as experimental units. At 11 months of age all mice were sacrificed and the brains were used for analysis. The brains of 3 saline- and 4 Guanabenz-injected animals were perfused as described and used for immunostaining and in situ hybridization. The brains of 2 saline- and 2 Guanabenz-injected animals were snapfrozen in liquid nitrogen and used for western blot analysis. No animals were excluded from any analysis.
Half of the forebrain and the whole cerebellum of 2 saline- and 2 Guanabenz-treated animals were separately used for western blot analysis. Forebrains were lysed in lysis buffer (50 mM Hepes, 150 mM NaCl, 1 mM EDTA, 2.5 mM ethylene glycol-bis(β-aminoethyl-ether)-N,N,N′,N′-tetraacetic acid, 0.1% Triton-X100, 10% glycerol, 1 mM dithiothreitol) supplemented with protease inhibitor cocktail (ThermoFisher Scientific) using a dounce tissue grinder (Sigma-Aldrich). […] Supernatants were collected and protein concentrations were measured with a Bradford assay. […] Secondary antibodies were raised against mouse or rabbit and conjugated with horseradish peroxidase. Blots were developed with SuperSignal™ West Femto Maximum Sensitivity Substrate (ThermoFisher Scientific) and measured in an Odyssey® Fc Imaging System (LI-COR Inc). Intensity of bands was quantified with ImageJ software and corrected for total amount of protein.

[6] = system: mRNAs encoding ATF4 and ATF4-regulated targets CHOP and TRIB3; assay: ISR marker mRNA levels in brain tissue (qPCR) after one Gb injection; assay type: in vivo, mouse; conditions: one dose 10 mg/kg i.p., vs saline
Description: (§1) FIG. 10. […] Statistical analysis was performed with two-way ANOVA (*, p<0.05, **, p<0.01, ***, p<0.001).
(§2) As (unpublished) part of this study, we investigated the effect of Gb on the expression of ATF4 and its regulated transcriptome in mice. […] In short, we injected one dose of 10 mg/kg Gb intraperitoneally into four wildtype (wt) and four 2b5ho mice. Saline-injected wt and 2b5ho mice were used as negative controls for measuring Gb effects on ISR markers. […] Organs were removed, snap frozen in liquid nitrogen and stored at −80° C. Tissue samples for RNA and protein analyses were prepared as described. In postmortem brain tissue we measured levels of phosphorylated eIF2a with Western blot and levels of mRNAs encoding ATF4 and ATF4-regulated targets CHOP and TRIB3 with qPCR.

[7] = system: eIF2a phosphorylation; assay: eIF2a phosphorylation in brain tissue (Western blot) after one Gb injection; assay type: in vivo, mouse; conditions: wt and 2b5ho mice, one dose 10 mg/kg i.p., vs saline
Description: as §1, §2

[8] = system: 2b5^ho mice; assay: Analysis of Bergmann glia translocation (S100ß/GFAP staining) after Guanabenz treatment; assay type: in vivo, mouse
Description: Tissue sections of 11 WT and 10 2b5^ho (carrying a homozygous Arg191His mutation in the Eif2b5 gene [7]) animals of 2, 5 or 7 months of age were collected after intracardiac perfusion with 4% paraformaldehyde (PFA). The brains were postfixed in 4% PFA for 1-2 days, after which half of the brain was embedded in paraffin and the other half was incubated overnight in 30% sucrose and snapfrozen in optimum cutting temperature compound (Sakura). […] To test the effect of Guanabenz, 11 female 2b5^ho littermates were injected with saline (n=5) or Guanabenz (10 mg/kg; n=6) i.p. every week from 2 months until 10 months of age. Animals were randomly assigned to the Guanabenz or saline group, and single animals were taken as experimental units. At 11 months of age all mice were sacrificed and the brains were used for analysis. […]
as §4
Bergmann glia pathology was analyzed in S100ß-stained sections. […] All the S100-positive cell bodies inside this band were counted and considered correctly localized. The S100ß-positive cell bodies located outside the band in the molecular layer were counted and considered as translocated Bergmann glia. The amount of translocated cell bodies was expressed as a ratio to the total number of S100ß-positive cell bodies counted.

Row | Compound | ATF4 expression under stress [1] | number of Plp-expressing cells [2] | average decrease of number of nestin-positive cells in the corpus callosum [3] [%] | half-life in blood/tissue [4] | amount of MBP protein, cerebellum [5] | amount of MOG protein, cerebellum [5] | amount of MOG protein, forebrain [5] | Atf4 mRNA levels in brain tissue, 2b5ho mice ([6]; 4 and 24 hours) | Ddit3 mRNA expression in brain tissue, 2b5ho mice ([6]; 4 and 24 hours) | Trib3 mRNA expression in brain tissue, 2b5ho mice ([6]; 4 and 24 hours, not significant at 4 hours) | Atf4 mRNA expression level in brain tissue, wt mice ([6]; n=2) | levels of eIF2a phosphorylation in brain tissue, 4 hours after injection [7] | levels of eIF2a phosphorylation in brain tissue, 24 hours after injection [7] | GFAP expression and Bergmann glia morphology ([8]; Guanabenz i.p. weekly 2-10 months, cerebellum) | decrease of number of translocated Bergmann glia cell bodies ([8]; Guanabenz i.p. weekly from 2 to 10 months of age, analysed at 11 months, vs saline, p=0.032, reached numbers of untreated WT) [%]
1 | N=C(N)NC(=O)Cc1c(Cl)cccc1Cl [Guanfacine, guanfacine] | small, variable and not statistically significant | – | – | – | – | – | – | – | – | – | – | – | – | – | –
2 | O=C(COc1ccc(Cl)cc1)NC1CCC(NC(=O)COc2ccc(Cl)cc2)CC1 (centres unmarked) [ISRIB] | reduced | – | – | – | – | – | – | – | – | – | – | – | – | – | –
3 | NC(N)=N/N=C/c1c(Cl)cccc1Cl [Guanabenz, guanabenz] | increased | slightly increased in the forebrain and cerebellum, though not significantly | 27 | approximately 6 hours | increased | increased | increased | transient decrease | reduced at both time points | reduced at both time points | unaffected | lower than in saline-injected animals | normalized | decreased GFAP expression and a normalization of Bergmann glia morphology | 30
